Laboratory results from patent US8399465B2, “Compounds with two fused bicyclic heteroaryl moieties as modulators of leukotriene A4 hydrolase” (Janssen Pharmaceutica NV, priority 2009, dated 2013).
pIC50: −log10 of the molar value. Structures can show the parent of a compound that is named as a salt.

How the values were obtained:
[1] = biological target: T1, recombinant human LTA4 hydrolase (rhLTA4H) (Homo sapiens, UniProt P09960); assay: Recombinant human LTA4 hydrolase assay for LTA4 hydrolase inhibitor activity; assay type: biochemical; details: rhLTA4H, LTB4 by immunoassay; single determination or average of two or more; mark after value = form tested: ′ free base, ″ hydrochloride, ^ formate; read-out: IC50
T1 construct: made in house; host or cells: Spodoptera frugiperda (Sf-9) cells, baculovirus (pFastBac1)
T1 sequence (P09960 1-611): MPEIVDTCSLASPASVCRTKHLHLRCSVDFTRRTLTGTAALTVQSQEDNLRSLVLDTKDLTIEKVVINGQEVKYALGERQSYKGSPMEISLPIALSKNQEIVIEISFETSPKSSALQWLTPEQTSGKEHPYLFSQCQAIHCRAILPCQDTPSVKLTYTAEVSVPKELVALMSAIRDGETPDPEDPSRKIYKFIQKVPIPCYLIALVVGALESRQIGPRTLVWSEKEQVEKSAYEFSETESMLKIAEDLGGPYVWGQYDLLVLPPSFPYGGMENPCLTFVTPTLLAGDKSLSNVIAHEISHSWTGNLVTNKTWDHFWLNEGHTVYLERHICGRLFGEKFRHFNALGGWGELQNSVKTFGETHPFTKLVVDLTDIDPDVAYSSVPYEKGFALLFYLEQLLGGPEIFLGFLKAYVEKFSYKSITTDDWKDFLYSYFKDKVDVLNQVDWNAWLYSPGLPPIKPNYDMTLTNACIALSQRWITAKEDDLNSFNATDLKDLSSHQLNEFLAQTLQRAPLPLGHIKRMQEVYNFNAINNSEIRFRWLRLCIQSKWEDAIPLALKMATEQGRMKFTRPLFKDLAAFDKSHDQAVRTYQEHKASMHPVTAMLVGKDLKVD
Procedure, shortened: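 Baculovirus/Sf-9-expressed human LTA4H (10 ng) was preincubated 10 min at rt with compound in assay buffer (10% DMSO in compound dilution), then reacted 30 min at rt with LTA4 free acid made from its methyl ester. LTB4 produced was measured by ELISA after dilution; IC50 from non-linear regression, single or averaged determinations.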

[2] = tested on: LTB4 production in murine blood (LTA4H); assay: LTB4 production by calcium ionophore-stimulated murine blood for LTA4H inhibitor activity; assay type: cell-based, CD-1 mice; details: Mus musculus; murine blood diluted 1 in 15, A23187 stimulated; single determination or average; mark after value = form tested: ′ free base, ″ hydrochloride, ^ formate; read-out: IC50
Protocol: Assay 2: LTB4 Production by Calcium Ionophore-Stimulated Murine Blood for LTA4H Inhibitor Activity
CD-1 mice were sacrificed, and blood was collected in heparin-containing syringes by cardiac puncture. […] After the microtiter plate contents were incubated for 15 min at 37° C. in a humidified incubator, calcium ionophore A23187 (Sigma Chemical Co., St. Louis, Mo.) was added to each sample well (final concentration=7 μg/mL). The incubation was continued under the same conditions for an additional 30 min to allow LTB4 formation. The reaction was terminated by centrifugation (833×g, 10 min at 4° C.), and supernatants were analyzed for LTB4 by a commercially available enzyme-linked immunoassay (Cayman Chemical Co.) according to the manufacturer's instructions. Positive controls, under essentially identical conditions but without addition of an inhibitor compound, and negative unstimulated controls, containing all assay components except calcium ionophore, were routinely run in each experiment. […] The values presented here are the result of a single determination or an average of two or more determinations.

| SMILES | pIC50 [1] | pIC50 [2] |
| --- | --- | --- |
| c1ccc2sc(Oc3ccc4c(CN5C[C@@H]6C[C@H]5CN6)c[nH]c4c3)nc2c1 [Example 52, (1S,4S)-2-[3-(2,5-Diaza-bicyclo[2.2.1]hept-2-ylmethyl)-1H-indol-6-yloxy]-benzothiazole 2HCl] | 7.64 | 6.39 |
| CC(=O)NC1CCN(Cc2c[nH]c3cc(Oc4nc5ccccc5s4)ccc23)CC1 [Example 53, N-{1-[6-(Benzothiazol-2-yloxy)-1H-indol-3-ylmethyl]-piperidin-4-yl}-acetamide] | 8.10 | 6.69 |
| NC(=O)C1CCN(Cc2cc3ccc(Oc4nc5ccccc5s4)cc3[nH]2)CC1 [Example 69, 1-[6-(Benzothiazol-2-yloxy)-1H-indol-2-ylmethyl]-piperidine-4-carboxylic acid amide] | 7.33 | 5.91 |
| CC(=O)N[C@H]1C[C@H]2CC[C@@H](C1)N2Cc1cc2ccc(Oc3nc4ccccc4s3)cc2[nH]1 [Example 70, meso-endo-N-{8-[6-(Benzothiazol-2-yloxy)-1H-indol-2-ylmethyl]-8-aza-bicyclo[3.2.1]oct-3-yl}-acetamide] | 9.00 | 7.12 |
| CC(=O)N[C@H]1C[C@H]2CC[C@@H](C1)N2Cc1cc2ccc(Oc3nc4ncccc4s3)cc2[nH]1 [Example 72, meso-endo-N-{8-[6-(Thiazolo[4,5-b]pyridin-2-yloxy)-1H-indol-2-ylmethyl]-8-aza-bicyclo[3.2.1]oct-3-yl}-acetamide] | 7.57 | 7.00 |
| O=C(O)CN[C@H]1C[C@H]2CC[C@@H](C1)N2Cc1cc2ccc(Oc3nc4ccccc4s3)cc2o1 [Example 81, meso-endo-{8-[6-(Benzothiazol-2-yloxy)-benzofuran-2-ylmethyl]-8-aza-bicyclo[3.2.1]oct-3-ylamino}-acetic acid] | 7.54 | 6.35 |
| CC(=O)N[C@H]1C[C@H]2CC[C@@H](C1)N2Cc1cc2cc(Oc3nc4ccccc4s3)ccc2o1 [Example 83, meso-endo-N-{8-[5-(Benzothiazol-2-yloxy)-benzofuran-2-ylmethyl]-8-aza-bicyclo[3.2.1]oct-3-yl}-acetamide formate] | 7.15 | 6.92 |
| CC(=O)N[C@H]1C[C@H]2CC[C@@H](C1)N2Cc1cc2cc(Oc3nc4c(F)cccc4s3)ccc2o1 [Example 85, meso-endo-N-{8-[5-(4-Fluoro-benzothiazol-2-yloxy)-benzofuran-2-ylmethyl]-8-aza-bicyclo[3.2.1]oct-3-yl}-acetamide] | 7.77 | 6.68 |
| c1cnc2nc(Oc3ccc4oc(CN5CCCCC5)cc4c3)sc2c1 [Example 86, 2-(2-Piperidin-1-ylmethyl-benzofuran-5-yloxy)-thiazolo[4,5-b]pyridine] | 7.17 | 7.07 |
| CC(=O)N[C@H]1C[C@H]2CC[C@@H](C1)N2Cc1cc2cc(Oc3nc4ncccc4s3)ccc2o1 [Example 87, meso-endo-N-{8-[5-(Thiazolo[4,5-b]pyridin-2-yloxy)-benzofuran-2-ylmethyl]-8-aza-bicyclo[3.2.1]oct-3-yl}-acetamide] | 7.46 | 7.11 |
| NC(=O)C1CCN(Cc2cc3cc(Oc4nc5ncccc5s4)ccc3o2)CC1 [Example 88, 1-[5-(Thiazolo[4,5-b]pyridin-2-yloxy)-benzofuran-2-ylmethyl]-piperidine-4-carboxylic acid amide] | 7.96 | 6.49 |
| NC(=O)N1C[C@H]2CC[C@@H](C1)N2Cc1cc2cc(Oc3nc4ncccc4s3)ccc2o1 [Example 94, meso-8-[5-(Thiazolo[4,5-b]pyridin-2-yloxy)-benzofuran-2-ylmethyl]-3,8-diaza-bicyclo[3.2.1]octane-3-carboxylic acid amide] | 6.99 | 6.69 |
| NC(=O)C1CCN(Cc2cc3cc(Oc4nc5ccccc5s4)ccc3o2)CC1 [Example 105, 1-[5-(Benzothiazol-2-yloxy)-benzofuran-2-ylmethyl]-piperidine-4-carboxylic acid amide] | 7.01 | 6.31 |

The remaining compounds from weak to strong by pIC50 [1], led by results:

| pIC50 [1] | pIC50 [2] | SMILES |
| --- | --- | --- |
| 7.00 | 5.95 | c1ccc2sc(Oc3ccc4[nH]c(CN5CCCCC5)cc4c3)nc2c1 [Example 65, 2-(2-Piperidin-1-ylmethyl-1H-indol-5-yloxy)-benzothiazole] |
| 7.03 | 6.35 | Cc1ccnc2nc(Oc3ccc4c(CN5CCOCC5)c[nH]c4c3)sc12 [Example 57, 7-Methyl-2-(3-morpholin-4-ylmethyl-1H-indol-6-yloxy)-thiazolo[4,5-b]pyridine] |
| 7.03 | 5.61 | CCn1c(CN2CCCC2)cc2cc(Oc3nc4ccccc4s3)ccc21 [Example 64, 2-(1-Ethyl-2-pyrrolidin-1-ylmethyl-1H-indol-5-yloxy)-benzothiazole] |
| 7.06 | 7.01 | NC(=O)N1CC2CN(Cc3cc4cc(Oc5nc6ncccc6s5)ccc4o3)CC2C1 (centres unmarked) [Example 91, 5-[5-(Thiazolo[4,5-b]pyridin-2-yloxy)-benzofuran-2-ylmethyl]-hexahydro-pyrrolo[3,4-c]pyrrole-2-carboxylic acid amide] |
| 7.29 | 6.40 | CS(=O)(=O)C1CCN(Cc2cc3cc(Oc4nc5ncccc5s4)ccc3o2)CC1 [Example 92, 2-[2-(4-Methanesulfonyl-piperidin-1-ylmethyl)-benzofuran-5-yloxy]-thiazolo[4,5-b]pyridine] |
| 7.32 | 6.46 | O=C(O)C1CCN(CCc2coc3cc(Oc4nc5ccccc5s4)ccc23)CC1 [Example 80, 1-{2-[6-(Benzothiazol-2-yloxy)-benzofuran-3-yl]-ethyl}-piperidine-4-carboxylic acid] |
| 7.35 | 6.74 | c1ccc2sc(Oc3ccc4c(CN5CC6CNCC6C5)c[nH]c4c3)nc2c1 (centres unmarked) [Example 51, 2-[3-(Hexahydro-pyrrolo[3,4-c]pyrrol-2-ylmethyl)-1H-indol-6-yloxy]-benzothiazole 2HCl] |
| 7.47 | 6.53 | c1ccc2sc(Oc3ccc4cc(CN5CCCCC5)[nH]c4c3)nc2c1 [Example 67, 2-(2-Piperidin-1-ylmethyl-1H-indol-6-yloxy)-benzothiazole] |
| 7.52 | 5.95 | c1ccc2sc(Oc3ccc4[nH]c(CN5CCCC5)cc4c3)nc2c1 [Example 66, 2-(2-Pyrrolidin-1-ylmethyl-1H-indol-5-yloxy)-benzothiazole] |
| 7.55 | 6.13 | NC1CCN(Cc2c[nH]c3cc(Oc4nc5ccccc5s4)ccc23)CC1 [Example 50, 1-[6-(Benzothiazol-2-yloxy)-1H-indol-3-ylmethyl]-piperidin-4-ylamine 2HCl] |
| 7.70 | 6.35 | c1ccc2sc(Oc3ccc4cc(CN5CCCC5)[nH]c4c3)nc2c1 [Example 68, 2-(2-Pyrrolidin-1-ylmethyl-1H-indol-6-yloxy)-benzothiazole] |
| 7.77 | 7.06 | c1cnc2nc(Oc3ccc4cc(CN5CCCCC5)[nH]c4c3)sc2c1 [Example 71, 2-(2-Piperidin-1-ylmethyl-1H-indol-6-yloxy)-thiazolo[4,5-b]pyridine] |
| 7.92 | 6.53 | CC(=O)N1C[C@H]2C[C@@H]1CN2Cc1cc2cc(Oc3nc4ncccc4s3)ccc2o1 [Example 102, (1R,4R)-1-{5-[5-(Thiazolo[4,5-b]pyridin-2-yloxy)-benzofuran-2-ylmethyl]-2,5-diaza-bicyclo[2.2.1]hept-2-yl}-ethanone] |
| 8.40 | 6.78 | CC(=O)N1CC2CN(Cc3c[nH]c4cc(Oc5nc6ccccc6s5)ccc34)CC2C1 (centres unmarked) [Example 54, 1-{5-[6-(Benzothiazol-2-yloxy)-1H-indol-3-ylmethyl]-hexahydro-pyrrolo[3,4-c]pyrrol-2-yl}-ethanone] |
| 8.52 | 6.89 | CC(=O)N1C[C@@H]2C[C@H]1CN2Cc1c[nH]c2cc(Oc3nc4ccccc4s3)ccc12 [Example 55, (1S,4S)-1-{5-[6-(Benzothiazol-2-yloxy)-1H-indol-3-ylmethyl]-2,5-diaza-bicyclo[2.2.1]hept-2-yl}-ethanone] |
